Data on four compounds can be found in US20260363987A1, “Novel Peptide Exhibiting Skin Condition Improvement Activity and Cosmetic Composition Containing Same” (DAEBONG LS CO., LTD., priority 2023, published 2026).

The test system of one assay is B16F10 cells. The experiment in a line: Melanin synthesis inhibition in α-MSH-treated melanocytes. The format is cell-based, mouse. To be noted: 72 hours. As for the experimental part:
Mouse-derived melanocytes (B16F10 cells) were obtained from the American Type Culture Collection (ATCC) and used. The cells were cultured in Dulbecco's Modified Eagle's Medium (DMEM) supplemented with 1% penicillin-streptomycin and 10% fetal bovine serum (FBS) at 37 °C in a 5% CO2 incubator, and subcultured every 3 to 4 days.
B16F10 cells were seeded at 6.0×10^4 cells/well in a 6-well plate and cultured for 24 hours at 37 °C in a 5% CO2 incubator. The culture medium was then replaced with phenol red-free, serum-free DMEM, followed by treatment with α-MSH, a melanin production-inducing hormone, and the peptide from the above Preparation Example at concentrations ranging from 1 to 100 μM. The cells were incubated for 72 hours, after which they were collected and lysed with 1 N NaOH in an 80 °C heating block to dissolve intracellular melanin. The absorbance of the resulting solution was measured at 490 nm. The control group was treated with arbutin at a concentration of 500 μg/mL.

In a further assay the test system is NHDF cells. The experiment in a line: Procollagen Type I Peptide (PIP) production, EIA. The format is cell-based, human. As for the experimental part: Normal Human Dermal Fibroblasts (NHDF) were obtained from Lonza (Lonza Walkersville, Inc.) and cultured in FBM (Fibroblast Basal Medium) supplemented with 0.1% hFGF-B, insulin, GA-1000, and 2% FBS at 37 °C in a 5% CO2 incubator. Subculture was performed every 2 to 3 days.
NHDF cells were seeded at 2.0×10^4 cells/well in a 24-well plate and incubated for 24 hours at 37 °C in a 5% CO2 incubator. After incubation, the culture medium was replaced with serum-free FBM, and the peptide prepared in the above Example was applied at concentrations of 1-100 μM, followed by incubation for 24 hours. The supernatant from each experimental group was collected, and the amount of procollagen released into the medium was measured. The positive control group was treated with ascorbic acid at a concentration of 0.001 v/v %. Measurement of procollagen levels was performed using a Procollagen Type I Peptide (PIP) EIA Kit (Takara Biomedical Co.) according to the manufacturer's protocol. The quantitative results of procollagen type I peptide production following treatment with the peptide of the Example are shown in Table 2 and FIG. 3.

Another assay has as its system HaCaT cells. Description: Hyaluronic acid (HA) production, ELISA. It counts as cell-based, human. As for the experimental part: The HaCaT human keratinocyte cell line was obtained from Cell Line Service GmbH (Germany). The cells were cultured in DMEM containing 1% penicillin-streptomycin and 10% fetal bovine serum (FBS) at 37 °C in a 5% CO2 incubator, and subculture was performed every 2 to 3 days.
HaCaT cells were seeded at 1.0×10^5 cells/well in a 24-well plate and incubated for 24 hours at 37 °C in a 5% CO2 incubator. After incubation, the culture medium was replaced with serum-free DMEM, and the peptide prepared in the above Example was applied at concentrations of 50-200 μM, followed by incubation for 24 hours. The supernatant from each experimental group was collected, and the amount of hyaluronic acid (HA) released into the medium was measured. The positive control group was treated with N-acetylglucosamine at a concentration of 10 mM. Measurement of hyaluronic acid production was conducted using a Hyaluronic Acid ELISA Kit (Cusabio Biotechnology Co., Ltd.) following the manufacturer's protocol.
Background: In an ELISA, binding on a coated surface is turned into a signal by an enzyme label.

On to `OC[C@H]1O[C@@H](Oc2ccc(O)cc2)[C@H](O)[C@@H](O)[C@@H]1O` [Arbutin, arbutin, reference compound], for which the activity at 500 µg/mL in the assay on B16F10 cells (Mus musculus, B16-F10, 500 μg/mL, control, with α-MSH (200 nM), α-MSH alone = 100 ± 3.6, untreated = 75 ± 3.04, read-out: Melanin production) is 59.6 ± 0.8%.

As for `O=C1O[C@H]([C@@H](O)CO)C(O)=C1O` [Asc.A, ascorbic acid, reference compound], in the assay with NHDF cells (Homo sapiens, NHDF, 24 h, 10 μg/mL, positive control, untreated group = 100 ± 1.29), the activity at 10 µg/mL came to 159 ± 3.8%.

For `CC(=O)N[C@H]1C(O)O[C@H](CO)[C@@H](O)[C@@H]1O` (stereo partly shown) [NAG, N-acetylglucosamine, reference compound], the activity at 10000 µM in the assay with HaCaT cells (Homo sapiens, HaCaT, 24 h, 10 mM, positive control, untreated group = 100 ± 5.15) is 125.5 ± 1.18%.

With “Ala-Ala-Gln-Pro-Arg (AAQPR; printed: Ala-Ala-Gln-Pro-Arg)”, the Procollagen production came out at 105.45 ± 3.15% with NHDF cells (1 μM, 24 hours, untreated group = 100 ± 1.29); 129.75 ± 9.74% with NHDF cells (10 μM, 24 hours, untreated group = 100 ± 1.29); 132.64 ± 13.74% in the assay on NHDF cells (50 μM, 24 hours, untreated group = 100 ± 1.29); 134.92 ± 1.3% with NHDF cells (100 μM, 24 hours, untreated group = 100 ± 1.29). Also, the “procollagen production (in words)” value in the assay with NHDF cells (1-100 μM, 24 hours) is reported as “increase in procollagen production”. Besides, the Melanin production was determined as 100.86 ± 4.32% with B16F10 cells (1 μM, with α-MSH (200 nM), α-MSH alone = 100 ± 3.6, untreated = 75 ± 3.04); 89.62 ± 2.95% in the assay with B16F10 cells (10 μM, with α-MSH (200 nM), α-MSH alone = 100 ± 3.6, untreated = 75 ± 3.04); 79.76 ± 4.18% with B16F10 cells (100 μM, with α-MSH (200 nM), α-MSH alone = 100 ± 3.6, untreated = 75 ± 3.04). Also, the “melanin production (in words)” value in the assay on B16F10 cells (1-100 μM, with α-MSH) is recorded as “inhibited melanin production”. Also, the Hyaluronic acid production turned out to be 107.14 ± 1.08% with HaCaT cells (50 μM, 24 hours, untreated group = 100 ± 5.15); 130.93 ± 0.59% in the assay with HaCaT cells (100 μM, 24 hours, untreated group = 100 ± 5.15); 136.91 ± 6.87% with HaCaT cells (200 μM, 24 hours, untreated group = 100 ± 5.15). Also, in the assay with HaCaT cells (50-200 μM, 24 hours), the “hyaluronic acid production (in words)” value is listed as “increase in hyaluronic acid production”.
